Measured values from paper PMC10487316, “A high‐throughput microfluidic mechanoporation platform to enable intracellular delivery of cyclic peptides in cell‐based assays” (Bioengineering & Translational Medicine, 2023).
Where a SMILES comes first, the peptide text is derived from it. Bridges are numbered along the chain shown (N, C = ends). [ ]: non-standard residue; d: D form. Lys(N3) = [N-]=[N+]=NCCCC[C@H](N)C(=O)O; R8 = C=CCCCCCC[C@@](C)(N)C(=O)O; Cba = N[C@@H](CC1CCC1)C(=O)O; S5 = C=CCCC[C@](C)(N)C(=O)O; βAla = NCCC(=O)O

Each compound was assayed on CellSensor p53RE-bla HCT116 cell line (p53 response element reporter) (assay: HCT116 p53 β-lactamase reporter gene functional assay). Details: 10 μM peptide; unprocessed vs DμVS-processed cells.
Assay type: cell-based, human
Description: The CellSensor™ p53RE‐bla HCT116 cell line (K1640, Thermo Scientific) was used for functional characterization of p53 pathway activation by DμVS‐delivered peptides. Assay was performed similarly to how previously described.[17] These cells harbor a stable integration of a β‐lactamase reporter gene under control of the p53 response element. Cells were maintained in McCoy's 5A medium (16600‐082, Invitrogen) with 10% dialyzed FBS (26400‐036, Invitrogen), blasticidin (R210‐01, Invitrogen), and penicillin/streptomycin according to the manufacturer's protocol. Peptides were synthesized as previously described.[16], [17] To set up the assay, peptides were first pre‐plated in assay medium (Opti‐MEM supplemented with 0.1 mM non‐essential amino acids [11140‐050, Invitrogen], 1 mM sodium pyruvate [11360‐070, Invitrogen], and penicillin/streptomycin) without FBS on 384‐well plates (Corning 3764) or 96‐well plates (Corning 3603) using a HP D300E digital dispenser (20 μl 384‐well, 50 μl 96‐well). Maximum DMSO concentration used was 0.3% v/v. Cells were washed, resuspended with 0.05% v/v trypsin, spun down for 5 min at 300× g, and resuspended in PBS. Cells were 70‐μm strained and then brought to a final cell density of 3 × 10^6 cells/ml in PBS. Cell suspension was connected to 15 mL P‐CAP of the DμVS system, and 2 mL were used to prime the system. DμVS process was then initiated at 120 psi and 20 μL (384‐well) or 50 μL (96‐well) were dispensed to microplate in wells that were pre‐defined in the Telios software and pre‐loaded with peptides 2× in assay medium. Unprocessed cells were added to the microplate in parallel. After DμVS processing/mixing with peptide, cells were incubated at 37°C for 4 h. β‐lactamase activity was detected using the ToxBLAzer loading kit (K1095, Invitrogen) according to the manufacturer's protocol. Plates were measured using the PHERAstar FSX microplate reader with a LiveBlazer optic module (1400‐G3M‐FI‐410‐530‐460, BMG Labtech). Maximum p53 activity was defined as the β‐lactamase activity induced by 30 μM MP‐081 (meanpos). Percent activation of individual samples (S) was calculated using the following equation, where meanveh represents the mean of vehicle controls: % activation=S−meanveh/meanpos−meanveh×100
Z‐factors were calculated using the formula: Z^′=1−3σpos+3σveh/meanpos−meanveh
Meanpos and σ pos represent the mean and standard deviation, respectively, of the raw ratiometric values for 30 μM MP‐081 and meanveh and σ veh represent the mean and standard deviation of the vehicle controls. Dose–response data EC50 values were determined using the “[Agonist] versus response—Variable slope (four parameters)” algorithm in GraphPad Prism. Single concentration data for expanded peptide set were analyzed using unpaired T‐tests with false discovery rate (FDR, 1.00%) multiple comparisons correction using the two‐stage step‐up (Benjamini, Krieger, and Yekutieli) method. Data were accumulated from at least five independent experimental runs.

| Compound | p53 activation at 10 μM with and without DμVS |
| --- | --- |
| CC(C)C[C@@H](NC(=O)[C@@H](CC(C)C)NC(=O)[C@@H](CCCCN)NC(=O)[C@@H](CCC(=O)O)NC(=O)[C@@H](Cc1ccccc1)NC(=O)[C@@H](CC(N)=O)NC(=O)[C@@H](C)NC(=O)[C@@H](Cc1ccc(O)cc1)NC(=O)[C@@H](Cc1c[nH]c2ccccc12)NC(=O)[C@@H](C)NC(=O)[C@H](N)[C@H](C)O)C(=O)N[C@H](CCCNC(=N)N)C(N)=O [MP-182, H-DThr-DAla-DTrp-DTyr-DAla-DAsn-DPhe-DGlu-DLys-DLeu-DLeu-DArg-NH2] (H-[dT][dA][dW][dY][dA][dN][dF][dE][dK][dL][dL][dR]-NH2) | lack of activity |
| CC(=O)N[C@@H](C(=O)N[C@H](C)C(=O)N[C@H](Cc1c[nH]c2ccccc12)C(=O)N[C@H](Cc1ccc(O)cc1)C(=O)N[C@H](C)C(=O)N[C@H](CC(N)=O)C(=O)N[C@H](Cc1ccccc1)C(=O)N[C@H](CCC(=O)O)C(=O)N[C@H](CCCCN)C(=O)N[C@H](CC(C)C)C(=O)N[C@H](CC(C)C)C(=O)N[C@H](CCCNC(=N)N)C(N)=O)[C@H](C)O [MP-183, Ac-DThr-DAla-DTrp-DTyr-DAla-DAsn-DPhe-DGlu-DLys-DLeu-DLeu-DArg-NH2] (Ac-[dT][dA][dW][dY][dA][dN][dF][dE][dK][dL][dL][dR]-NH2) | lack of activity |
| CC(=O)N[C@@H](CC(C)C)C(=O)N[C@H](C(=O)N[C@H](Cc1ccccc1)C(=O)N[C@]1(C)CCCCCCC=CCCC[C@@](C)(C(=O)N[C@@H](C)C(=O)N[C@@H](C)C(=O)N[C@@H](C)C(=O)N[C@@H](C)C(=O)N[C@@H](C)C(=O)N[C@H](C)C(N)=O)NC(=O)[C@H](CC(C)C)NC(=O)[C@H](CCC(N)=O)NC(=O)[C@H](C)NC(=O)[C@H](Cc2c[nH]c3ccccc23)NC(=O)[C@H](Cc2ccc(O)cc2)NC(=O)[C@H](CCC(=O)O)NC1=O)[C@@H](C)O [MP-990, Ac-Leu-Thr-DPhe-R8*-Glu-Tyr-Trp-Ala-Gln-Leu-S5*-Ala-Ala-Ala-Ala-Ala-DAla-NH2] (Ac-LT[dF][R8]EYWAQL[S5]AAAAA[dA]-NH2; staple 4-11) | no activity in either format |
| H-Lys(N3)-betaAla-Leu-Thr-Phe-R8*-Glu-Tyr-Trp-Ala-Gln-Cba-S5*-Ser-Ala-Ala-Lys(mPEG24)-NH2 [MP-414] | showed functional activity |

Same assay, conditions: DμVS-based assay format, expanded peptide set; read-out: DμVS-p53 reporter EC50 (validated hits, dose response)

| EC50 | Compound |
| --- | --- |
| 1 µM | H-Lys(N3)-betaAla-Leu-Thr-Phe-R8*-Glu-Tyr-Trp-Ala-Gln-Cba-S5*-Ser-Ala-Ala-Lys(mPEG24)-NH2 [MP-414] |

The compounds below were run against T1, MDM2 (1–125) protein (Homo sapiens, UniProt Q00987) (assay: MDM2 binding assay (fluorescence anisotropy competition)). Details: competition vs 50 nM FAM-labeled 12/1 peptide, 250 nM MDM2; heat map of Figure 5a.
T1 construct: made in house
Description: MDM2 protein generation and binding studies were performed as described.[17] […] The competing molecules were then titrated against the complex of the FAM‐labeled peptide and protein. Curve‐fitting was carried out using Prism 4.0 (GraphPad) to determine K D values. Readings were carried out with an Envision Multilabel Reader (PerkinElmer). […] All titrations were carried out in triplicate.

T1 sequence (Q00987 1-125): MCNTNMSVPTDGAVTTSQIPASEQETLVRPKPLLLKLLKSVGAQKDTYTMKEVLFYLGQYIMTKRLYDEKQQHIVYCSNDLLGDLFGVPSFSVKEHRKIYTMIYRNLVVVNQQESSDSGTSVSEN

| Compound | Kd |
| --- | --- |
| CC(=O)N[C@H](C(=O)N[C@@H](CO)C(=O)N[C@@](C)(Cc1ccccc1)C(=O)N[C@]1(C)CCCCCCC=CCCC[C@@](C)(C(N)=O)NC(=O)[C@H](CC(C)C)NC(=O)[C@H](CC(C)C)NC(=O)[C@H](C)NC(=O)[C@H](Cc2c[nH]c3ccccc23)NC(=O)[C@H](Cc2ccc(O)cc2)NC(=O)[C@H](CCC(=O)O)NC1=O)[C@@H](C)O [MP-159, Ac-Thr-Ser-(ɑ-Me-Phe)-R8*-Glu-Tyr-Trp-Ala-Leu-Leu-S5*-NH2] | 0.015 µM |
| CC(C)C[C@@H]1NC(=O)[C@H](C)NC(=O)[C@H](Cc2c[nH]c3ccccc23)NC(=O)[C@H](Cc2ccc(O)cc2)NC(=O)[C@H](CCC(=O)O)NC(=O)[C@](C)(NC(=O)[C@H](Cc2ccccc2)NC(=O)[C@H](CO)NC(=O)[C@@H](NC(=O)[C@H](CO)NC(=O)CNC(=O)[C@H](CO)NC(=O)[C@H](CCCCN=[N+]=[N-])NC(=O)[C@H](CCC(=O)O)NC(=O)[C@@H](N)CCC(=O)O)[C@@H](C)O)CCCCCCC=CCCC[C@@](C)(C(N)=O)NC(=O)[C@H](CC(C)C)NC1=O [MP-181, H-Glu-Glu-Lys(N3)-Ser-Gly-Ser-Thr-Ser-Phe-R8*-Glu-Tyr-Trp-Ala-Leu-Leu-S5*-NH2] (H-EE[Lys(N3)]SGSTSF[R8]EYWALL[S5]-NH2; staple 10-17) | 0.017 µM |
| Ac-LTFEEYWAQLTS-NH2 [MP-190] | 0.017 µM |

Other lines, results leading:

| Kd | Compound |
| --- | --- |
| 0.027 µM | CC(=O)N[C@H](CC(C)C)C(=O)N[C@H](C(=O)N[C@@H](Cc1ccccc1)C(=O)N[C@@H](CCC(=O)O)C(=O)N[C@@H](CCC(=O)O)C(=O)N[C@@H](Cc1ccc(O)cc1)C(=O)N[C@@H](Cc1c[nH]c2ccccc12)C(=O)N[C@@H](C)C(=O)N[C@@H](CCC(N)=O)C(=O)N[C@@H](CC(C)C)C(=O)N[C@H](C(=O)N[C@@H](CO)C(N)=O)[C@@H](C)O)[C@@H](C)O [MP-191] (Ac-[dL]TFEEYWAQLTS-NH2) |
| 0.00053 µM | CC(C)C[C@H]1NC(=O)[C@@H](CCCCN)NC(=O)[C@@H](CCC(=O)O)NC(=O)[C@@H](Cc2ccc(C(F)(F)F)cc2)NC(=O)[C@@H](CC(N)=O)NC(=O)C2(CCCC=CCCCCCC[C@](C)(C(=O)N[C@H](C)C(=O)N[C@H](C)C(=O)N[C@H](C)C(=O)N[C@H](C)C(=O)N[C@H](C)C(=O)N[C@H](C)C(N)=O)NC(=O)[C@@H](CC(C)C)NC1=O)CCCC=CCCC[C@@](C)(N)C(=O)N[C@H](C)C(=O)N[C@H](Cc1c[nH]c3cc(F)ccc13)C(=O)N[C@H](Cc1ccc(O)cc1)C(=O)N2 (some centres unmarked) [MP-231, H-R5*-DAla-DTrp(6-F)-DTyr-B5**-DAsn-DPhe(4-CF3)-DGlu-DLys-DLeu-DLeu-R8*-DAla-DAla-DAla-DAla-DAla-DAla-NH2] |
| 0.088 µM | CC(=O)N[C@@H](CC(C)C)C(=O)N[C@H](C(=O)N[C@@H](Cc1ccccc1)C(=O)NC(C)(C)C(=O)N[C@@H](CCC(=O)O)C(=O)N[C@@H](Cc1ccc(O)cc1)C(=O)N[C@@H](Cc1c[nH]c2ccccc12)C(=O)N[C@@H](CCC(N)=O)C(=O)N[C@@H](CC(C)C)C(=O)N[C@@H](CC1CCC1)C(=O)NC(C)(C)C(=O)N[C@@H](CO)C(=O)N[C@@H](C)C(=O)N[C@@H](C)C(=O)O)[C@@H](C)O [MP-788, Ac-Leu-Thr-Phe-Aib-Glu-Tyr-Trp-Gln-Leu-Cba-Aib-Ser-Ala-Ala-OH] |
| 0.115 µM | CC(=O)N[C@@H](CC(C)C)C(=O)N[C@H](C(=O)N[C@@H](Cc1ccccc1)C(=O)N[C@@H](CCC(=O)O)C(=O)N[C@@H](CCC(=O)O)C(=O)N[C@@H](Cc1ccc(O)cc1)C(=O)N[C@@H](Cc1c[nH]c2ccccc12)C(=O)N[C@@H](C)C(=O)N[C@H](CCC(N)=O)C(=O)N[C@@H](CC(C)C)C(=O)N[C@H](C(=O)N[C@@H](CO)C(N)=O)[C@@H](C)O)[C@@H](C)O [MP-793] (Ac-LTFEEYWA[dQ]LTS-NH2) |
| 0.00097 µM | CC(=O)N[C@@H](CCCCN=[N+]=[N-])C(=O)NCCC(=O)N[C@@H](CC(C)C)C(=O)N[C@H](C(=O)N[C@@H](Cc1ccccc1)C(=O)N[C@]1(C)CCCCCCC=CCCC[C@@](C)(C(=O)N[C@@H](CCC(=O)O)C(=O)N[C@@H](C)C(=O)N[C@@H](C)C(=O)N[C@@H](C)C(=O)N[C@@H](C)C(=O)N[C@H](C)C(N)=O)NC(=O)[C@H](CC2CCC2)NC(=O)[C@H](CCC(N)=O)NC(=O)[C@H](C)NC(=O)[C@H](Cc2c[nH]c3ccccc23)NC(=O)[C@H](Cc2ccc(O)cc2)NC(=O)[C@H](CCC(=O)O)NC1=O)[C@@H](C)O [MP-834, Ac-Lys(N3)-betaAla-Leu-Thr-Phe-R8*-Glu-Tyr-Trp-Ala-Gln-Cba-S5*-Glu-Ala-Ala-Ala-Ala-DAla-NH2] (Ac-[Lys(N3)][βAla]LTF[R8]EYWAQ[Cba][S5]EAAAA[dA]-NH2; staple 6-13) |
| 0.00085 µM | CC(C)C[C@@H]1NC(=O)[C@H](C)NC(=O)[C@H](Cc2c[nH]c3ccccc23)NC(=O)[C@H](Cc2ccc(O)cc2)NC(=O)[C@H](CCC(=O)O)NC(=O)[C@](C)(NC(=O)[C@H](Cc2ccccc2)NC(=O)[C@H](CO)NC(=O)[C@@H](NC(=O)[C@H](CO)NC(=O)CNC(=O)[C@H](CO)NC(=O)[C@H](CCCCN=[N+]=[N-])NC(=O)[C@H](CCC(=O)O)NC(=O)[C@H](CCC(=O)O)NC(=O)[C@@H](N)CCC(=O)O)[C@@H](C)O)CCCCCCC=CCCC[C@@](C)(C(N)=O)NC(=O)[C@H](CC(C)C)NC1=O [MP-948, NH2-Glu-Glu-Glu-Lys(N3)-Ser-Gly-Ser-Thr-Ser-Phe-R8*-Glu-Tyr-Trp-Ala-Leu-Leu-S5*-NH2] (H-EEE[Lys(N3)]SGSTSF[R8]EYWALL[S5]-NH2; staple 11-18) |
